Patent publication US20250230155A1 (Vanderbilt University, priority 2021, published 2025)
pEC50: −log10 of the molar value.

Biological target: T1, human mAChR M4 (Homo sapiens, UniProt P08173)
T1 construct: expressed in transfected cells
T1 sequence (P08173 1-479): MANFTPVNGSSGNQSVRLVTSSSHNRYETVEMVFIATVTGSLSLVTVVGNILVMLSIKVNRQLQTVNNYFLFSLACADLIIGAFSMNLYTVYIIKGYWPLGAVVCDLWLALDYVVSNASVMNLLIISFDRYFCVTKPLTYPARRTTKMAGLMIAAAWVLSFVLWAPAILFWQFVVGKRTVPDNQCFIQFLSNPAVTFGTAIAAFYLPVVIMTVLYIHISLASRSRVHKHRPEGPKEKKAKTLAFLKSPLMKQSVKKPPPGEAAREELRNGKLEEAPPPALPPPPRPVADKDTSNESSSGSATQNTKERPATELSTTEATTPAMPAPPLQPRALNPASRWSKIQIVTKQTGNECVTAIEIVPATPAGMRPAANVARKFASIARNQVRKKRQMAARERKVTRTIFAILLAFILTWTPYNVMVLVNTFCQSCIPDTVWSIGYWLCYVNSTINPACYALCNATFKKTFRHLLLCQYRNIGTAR
Assay: mAChR M4 cell-based functional assay (calcium mobilization, CHO-K1 hM4-Gqi5 cells)
Settings: for Emax at 30 µM: CHO-K1, % ACh maximum at 30 μM, human M4; for pEC50: positive allosteric modulator activity, increase in the EC20 acetylcholine response, CHO-K1 hM4-Gqi5 cells, read-out: Human M4 EC50
Method in brief: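 CHO-K1 cells stably expressing human M4 with chimeric Gqi5, loaded with Fluo-4 AM; compounds given as 11-point 1:3 curves and calcium flux read on FDSS at 1 Hz. Acetylcholine EC20 added at 144 s, EC80 at 230 s; agonist, PAM (EC20 potentiation) and antagonist (EC80 inhibition) EC50/Emax from four-parameter fits.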

| Emax at 30 µM [%] | pEC50 | SMILES |
| --- | --- | --- |
| 129 | 7.80 | Cc1cc(C(=O)N2CC(Cl)C2)nnc1N1CCc2ncc(N3CCCn4nccc43)cc2C1 [Example 527, (3-chloroazetidin-1-yl)(6-(3-(6,7-dihydropyrazolo[1,5-a]pyrimidin-4(5H)-yl)-7,8-dihydro-1,6-naphthyridin-6(5H)-yl)-5-methylpyridazin-3-yl)methanone] |
| 102 | 7.28 | Cc1cc(C(=O)N2CC(C(C)(C)O)C2)nnc1N1CCc2ncc(N3CCCn4nccc43)cc2C1 [Example 528, (6-(3-(6,7-dihydropyrazolo[1,5-a]pyrimidin-4(5H)-yl)-7,8-dihydro-1,6-naphthyridin-6(5H)-yl)-5-methylpyridazin-3-yl)(3-(2-hydroxypropan-2-yl)azetidin-1-yl)methanone] |
| 68 | 6.24 | Cc1cc(C(=O)N2CCCC2(C)C)nnc1N1CCc2ncc(N3CCCn4nccc43)cc2C1 [Example 529, (6-(3-(6,7-dihydropyrazolo[1,5-a]pyrimidin-4(5H)-yl)-7,8-dihydro-1,6-naphthyridin-6(5/I)-yl)-5-methylpyridazin-3-yl)(2,2-dimethylpyrrolidin-1-yl)methanone] |
| 88 | 6.97 | Cc1cc(C(=O)N2CC(F)(F)C2)nnc1N1CCc2ncc(-n3cccn3)cc2C1 [Example 533, (6-(3-(1H-pyrazol-1-yl)-7,8-dihydro-1,6-naphthyridin-6(5H)-yl)-5-methylpyridazin-3-yl)(3,3-difluoroazetidin-1-yl)methanone] |
| 86 | 5.94 | Cc1cc(C(=O)N2CCCC2)nnc1N1CCc2ncc(N3CCO[C@H](C)C3)cc2C1 [Example 536, (R)-(5-methyl-6-(3-(2-methylmorpholino)-7,8-dihydro-1,6-naphthyridin-6(5H)-yl)pyridazin-3-yl)(pyrrolidin-1-yl)methanone] |
| 103 | 7.27 | Cc1cc(C(=O)N2CC(Cl)C2)nnc1N1CCc2ncc(N3CCO[C@H](C)C3)cc2C1 [Example 538, (R)-(3-chloroazetidin-1-yl)(5-methyl-6-(3-(2-methylmorpholino)-7,8-dihydro-1,6-naphthyridin-6(5H)-yl)pyridazin-3-yl)methanone] |
| 100 | 6.57 | Cc1cc(C(=O)N2CC(C)(O)C2)nnc1N1CCc2ncc(N3CCO[C@H](C)C3)cc2C1 [Example 540, (R)-(3-hydroxy-3-methylazetidin-1-yl)(5-methyl-6-(3-(2-methylmorpholino)-7,8-dihydro-1,6-naphthyridin-6(5H)-yl)pyridazin-3-yl)methanone] |
| 114 | 7.33 | Cc1cc(C(=O)NC2(c3ccccn3)CC2)nnc1N1CCc2ncc(N3CCCn4nccc43)cc2C1 [Example 543, 6-(3-(6,7-dihydropyrazolo[1,5-a]pyrimidin-4(5H)-yl)-7,8-dihydro-1,6-naphthyridin-6(5H)-yl)-5-methyl-N-(1-(pyridin-2-yl)cyclopropyl)pyridazine-3-carboxamide] |
| 116 | 7.80 | Cc1cc(C(=O)N2CC(C)(F)C2)nnc1N1CCc2ncc(N3CCCn4nccc43)cc2C1 [Example 546, (6-(3-(6,7-dihydropyrazolo[1,5-a]pyrimidin-4(5H)-yl)-7,8-dihydro-1,6-naphthyridin-6(5H)-yl)-5-methylpyridazin-3-yl)(3-fluoro-3-methylazetidin-1-yl)methanone] |
| 122 | 7.40 | Cc1cc(C(=O)N2CC(C)(O)C2)nnc1N1CCc2ncc(N3CCCn4nccc43)cc2C1 [Example 547, (6-(3-(6,7-dihydropyrazolo[1,5-a]pyrimidin-4(5H)-yl)-7,8-dihydro-1,6-naphthyridin-6(5H)-yl)-5-methylpyridazin-3-yl)(3-hydroxy-3-methylazetidin-1-yl)methanone] |
| 115 | 7.60 | COC1CN(C(=O)c2cc(C)c(N3CCc4ncc(N5CCCn6nccc65)cc4C3)nn2)C1 [Example 548, (6-(3-(6,7-dihydropyrazolo[1,5-a]pyrimidin-4(5H)-yl)-7,8-dihydro-1,6-naphthyridin-6(5H)-yl)-5-methylpyridazin-3-yl)(3-methoxyazetidin-1-yl)methanone] |
| 111 | 7.07 | Cc1cc(C(=O)N2CCC2C)nnc1N1CCc2ncc(N3CCCn4nccc43)cc2C1 (centres unmarked) [Example 550, (6-(3-(6,7-dihydropyrazolo[1,5-a]pyrimidin-4(5H)-yl)-7,8-dihydro-1,6-naphthyridin-6(5H)-yl)-5-methylpyridazin-3-yl)(2-methylazetidin-1-yl)methanone] |

Second part, the compound before the results:

| SMILES | Emax at 30 µM [%] | pEC50 |
| --- | --- | --- |
| Cc1cc(C(=O)N2CCCC2)nnc1N1CCc2ncc(-n3cccn3)cc2C1 [Example 530, (6-(3-(1H-pyrazol-1-yl)-7,8-dihydro-1,6-naphthyridin-6(5H)-yl)-5-methylpyridazin-3-yl)(pyrrolidin-1-yl)methanone] | 81 | 5.52 |
| Cc1cc(C(=O)N2CCC2)nnc1N1CCc2ncc(-n3cccn3)cc2C1 [Example 531, (6-(3-(1H-pyrazol-1-yl)-7,8-dihydro-1,6-naphthyridin-6(5H)-yl)-5-methylpyridazin-3-yl)(azetidin-1-yl)methanone] | 83 | 6.62 |
| Cc1cc(C(=O)N2CC(Cl)C2)nnc1N1CCc2ncc(-n3cccn3)cc2C1 [Example 532, (6-(3-(1H-pyrazol-1-yl)-7,8-dihydro-1,6-naphthyridin-6(5H)-yl)-5-methylpyridazin-3-yl)(3-chloroazetidin-1-yl)methanone] | 90 | 7.11 |
| Cc1cc(C(=O)N2CC(C)(O)C2)nnc1N1CCc2ncc(-n3cccn3)cc2C1 [Example 534, (6-(3-(1H-pyrazol-1-yl)-7,8-dihydro-1,6-naphthyridin-6(5H)-yl)-5-methylpyridazin-3-yl)(3-hydroxy-3-methylazetidin-1-yl)methanone] | 88 | 6.49 |
| Cc1cc(C(=O)N2CC(c3cccnc3)C2)nnc1N1CCc2ncc(-n3cccn3)cc2C1 [Example 535, (6-(3-(1H-pyrazol-1-yl)-7,8-dihydro-1,6-naphthyridin-6(5H)-yl)-5-methylpyridazin-3-yl)(3-(pyridin-3-yl)azetidin-1-yl)methanone] | 84 | 7.07 |
| Cc1cc(C(=O)N2CCC2)nnc1N1CCc2ncc(N3CCO[C@H](C)C3)cc2C1 [Example 537, (R)-azetidin-1-yl(5-methyl-6-(3-(2-methylmorpholino)-7,8-dihydro-1,6-naphthyridin-6(5H)-yl)pyridazin-3-yl)methanone] | 96 | 6.88 |
| Cc1cc(C(=O)N2CC(F)(F)C2)nnc1N1CCc2ncc(N3CCO[C@H](C)C3)cc2C1 [Example 539, (R)-(3,3-difluoroazetidin-1-yl)(5-methyl-6-(3-(2-methylmorpholino)-7,8-dihydro-1,6-naphthyridin-6(5H)-yl)pyridazin-3-yl)methanone] | 101 | 7.29 |
| Cc1cc(C(=O)N2CC(c3cccnc3)C2)nnc1N1CCc2ncc(N3CCO[C@H](C)C3)cc2C1 [Example 541, (R)-(5-methyl-6-(3-(2-methylmorpholino)-7,8-dihydro-1,6-naphthyridin-6(5H)-yl)pyridazin-3-yl)(3-(pyridin-3-yl)azetidin-1-yl)methanone] | 101 | 7.21 |
| Cc1cc(C(=O)N2CC3(COC3)C2)nnc1N1CCc2ncc(N3CCCn4nccc43)cc2C1 [Example 542, (6-(3-(6,7-dihydropyrazolo[1,5-a]pyrimidin-4(5H)-yl)-7,8-dihydro-1,6-naphthyridin-6(5H)-yl)-5-methylpyridazin-3-yl)(2-oxa-6-azaspiro[3.3]heptan-6-yl)methanone] | 113 | 7.19 |
| Cc1cc(C(=O)N2CC(F)(F)C2)nnc1N1CCc2ncc(N3CCCn4nccc43)cc2C1 [Example 544, (3,3-difluoroazetidin-1-yl)(6-(3-(6,7-dihydropyrazolo[1,5-a]pyrimidin-4(5H)-yl)-7,8-dihydro-1,6-naphthyridin-6(5/)-yl)-5-methylpyridazin-3-yl)methanone] | 105 | 7.35 |
| Cc1cc(C(=O)N2CCC2)nnc1N1CCc2ncc(N3CCCn4nccc43)cc2C1 [Example 545, azetidin-1-yl(6-(3-(6,7-dihydropyrazolo[1,5-a]pyrimidin-4(5H)-yl)-7,8-dihydro-1,6-naphthyridin-6(5H)-yl)-5-methylpyridazin-3-yl)methanone] | 125 | 7.34 |
| Cc1cc(C(=O)N2CC(C)C2)nnc1N1CCc2ncc(N3CCCn4nccc43)cc2C1 [Example 549, (6-(3-(6,7-dihydropyrazolo[1,5-a]pyrimidin-4(5H)-yl)-7,8-dihydro-1,6-naphthyridin-6(5H)-yl)-5-methylpyridazin-3-yl)(3-methylazetidin-1-yl)methanone] | 120 | 7.25 |
| Cc1cc(C(=O)N2CC(F)C2)nnc1N1CCc2ncc(N3CCCn4nccc43)cc2C1 [Example 551, (6-(3-(6,7-dihydropyrazolo[1,5-a]pyrimidin-4(5H)-yl)-7,8-dihydro-1,6-naphthyridin-6(5H)-yl)-5-methylpyridazin-3-yl)(3-fluoroazetidin-1-yl)methanone] | 111 | 7.36 |
